Test results: paper PMC6386929, “Evaluation of the Antimicrobial Activity of Cationic Peptides Loaded in Surface-Modified Nanoliposomes against Foodborne Bacteria” (International Journal of Molecular Sciences, 2019)
Where no end group is shown, it is not given here.

What was measured:
E. coli ATCC25922 = assay type: cell-based, Escherichia coli
Source text: (§1) L. monocytogenes ATCCbaa751 and E. coli ATCC25922, were obtained from the American Type Culture Collection (ATCC; Rockville, MD, USA). NovaPEG Rink Amida resin, Fmoc-protected amino acids, 2-(1H-benzotriazole-1-yl)-1,1,3,3-tetramethyluronium tetrafluoro-borate (TBTU), Piperidine, N,N-Diisopropylethylamine (DIEA), Ninhydrin, Dimethylformamide (DMF), Trifluoroacetic acid (TFA), 1,2-Ethanedithiol (EDT), Triisopropylsilane (TIS) and Mueller Hinton Broth (MHB) were purchased in Merck (Darmstadt, Germany). Cholesterol, Epikuron 200® and dioleoyl-phosphatidyl-ethanolamine (DOPE) were obtained from Avanti Polar Lipids (Alabaster, Alabama, USA). Eudragit® E-100 was purchased in Evonik (Darmstadt, Germany). Ampicillin (Fersinsa Gb) was supplied by Tecnoquímicas S.A. (Cali, Colombia) and Gentamicin solution (GENFAR®, Cali, Colombia) was purchased from a local pharmacy. The datasets used and materials using during this study are available from the corresponding author on reasonable request.
(§2) Microbial susceptibility tests were performed according to clinical and laboratory standards institute (CLSI) standard methods. Bacteria were inoculated in MHB and incubated overnight at 37 °C. […] After incubation, the minimum inhibitory concentration (MIC) was determined by visual analysis.

[1] = test system: L. monocytogenes ATCCbaa751; assay type: cell-based, Listeria monocytogenes
Source text: as §1, §2

[2] = Surface tension (pendant drop) and aggregation index (dual-angle DLS) of peptides in aqueous media; assay type: physicochemical; conditions: PBS pH 7.2, 138 mM NaCl; peptide 0–50 µM; pendant drop and dual-angle DLS (173° and 13°); triplicate
Protocol: Surface tension measurements of the peptides were carried out using a contact angle meter (OCA15EC Dataphysics Instruments, Filderstadt, Germany) with a software driver (version 4.5.14 SCA22), where the data capture was recorded using an IDS video camera. For this, the pendant-drop method was performed in triplicate, where peptide concentrations between 0 and 50 µM were prepared with ultrapure water and phosphate buffer saline pH 7.2 (PBS, 138 mM NaCl, 3 mM KCl, 1.5 mM NaH2PO4, 8.1 mM Na2HPO4). The samples of peptides +2 and +5 were prepared in serial concentrations between 0 and 50 µM in PBS buffer pH 7.2 at 138 mM of ionic strength. An aliquot was analysed immediately after preparation. Dual angle DLS measurements (173° and 13°) of automatic duration were carried out using a Zetasizer Nano ZSP (Malvern Instruments, Worcestershire, United Kingdom). The Aggregation Index is a parameter based on the mean z-average size measured for the two angles of scattering according to the equation: (1) Aggregation index=[Zfwd/Zbkd−1] where, Zfwd is the average particle size detected by forward scatter optics at 13°. Trace amounts of aggregate are often highly useful for the enhanced detection of large protein aggregates, whereas Zbkd is the particle size average at a detection angle of 173° (non-invasive back-scatter).

E. coli = conditions: cited from earlier work
Source text: (§3) Alyteserin-1c is an AMP comprising a 23 amino acid residue (net charge: +2) and was first isolated from norepinephrine-stimulated skin secretions from the midwife toad Alytes obstetricans. […] Although AMPs are an alternative means for eliminating bacteria in foods, due to their biocompatibility, biodegradability, broad spectrum of activity and potent bactericidal properties, most ...

human erythrocytes = conditions: cited from earlier work
Source text: as §3

GLKEIFKAGLGSLVKGIAAHVAS [peptide +2, Alyteserin-1c]
MIC (E. coli ATCC25922): 15.2 µM
MIC [1]: 125 µM
concentration at which changes in surface tension and aggregation index are achieved [2]: 20 µM
MIC (E. coli): 25 µM
hemolytic activity (human erythrocytes): low hemolytic activity

GLKRIFKSGLGKLVKGISAHVAS [peptide +5]
MIC (E. coli ATCC25922): 62.5 µM
MIC [1]: 62.5 µM
concentration at which changes in surface tension and aggregation index are achieved [2]: 5 to 10 µM
